Results published in the supplement of paper PMC4862054.

Columns and labels:
Test in all cases: normalised response (% of control), CellTiter-Glo; higher = more viable cells (100 = DMSO, 0 = benzethonium chloride kill control)
Conditions in all cases: incubation time: 72 h
[1] = test system: MDA-MB-468
Procedure, shortened: (§1)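 Each entry is the normalised signal at a single concentration within a series. The series comprised 5 concentrations in 10-fold steps over a compound-specific 10,000-fold range, placed in 384-well plates into which breast cancer cell lines were seeded as 20 µl suspension and incubated 72 h. CellTox Green (485/520 nm) fluorescence and then CellTiter-Glo luminescence were read, with signals normalised per plate to 0.1 % DMSO (100) and a positive kill control (0).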

[2] = test system: SK-BR-3
Procedure, shortened: as §1

[3] = test system: HDQ-P1
Procedure, shortened: as §1

[4] = test system: Hs578T
Procedure, shortened: as §1

[5] = test system: MCF-10A
Procedure, shortened: as §1

[6] = test system: DU-4475
Procedure, shortened: as §1

[7] = test system: CAL-120
Procedure, shortened: as §1

[8] = test system: MDA-MB-231
Procedure, shortened: as §1

[9] = test system: MFM-223
Procedure, shortened: as §1

[10] = test system: CAL-85-1
Procedure, shortened: as §1

[11] = test system: CAL-51
Procedure, shortened: as §1

[12] = test system: MDA-MB-436
Procedure, shortened: as §1

[13] = test system: CAL-148
Procedure, shortened: as §1

[14] = test system: MDA-MB-453
Procedure, shortened: as §1

[15] = test system: BT-549
Procedure, shortened: as §1

[16] = test system: HCC1143
Procedure, shortened: as §1

[17] = test system: BT-474
Procedure, shortened: as §1

[18] = test system: HCC1937
Procedure, shortened: as §1

[19] = test system: HCC1599
Procedure, shortened: as §1

Row | Compound | normalised response [1] [%] | normalised response [2] [%] | normalised response [3] [%] | normalised response [4] [%] | normalised response [5] [%] | normalised response [6] [%] | normalised response [7] [%] | normalised response [8] [%] | normalised response [9] [%] | normalised response [10] [%] | normalised response [11] [%] | normalised response [12] [%] | normalised response [13] [%] | normalised response [14] [%] | normalised response [15] [%] | normalised response [16] [%] | normalised response [17] [%] | normalised response [18] [%] | normalised response [19] [%]
1 | CC(C)(C)NC(=O)[C@H]1CC[C@H]2[C@@H]3CC[C@H]4NC(=O)C=C[C@]4(C)[C@H]3CC[C@]12C [Finasteride] (10 nM) | 106 | 121 | 97.3 | 101 | 104 | 102 | 99.5 | 104 | 97.8 | 98.7 | 80.6 | 95.9 | 101 | 113 | 96.4 | 108 | 98.3 | 103 | 114
2 | CC(C)n1cnc2c(NCCc3ccc(O)cc3)nc(-c3csc4ccccc34)nc21 [StemRegenin 1] (1 nM) | 92.6 | 108 | 103 | 104 | 106 | 102 | 96.6 | 99.7 | 103 | 99.2 | 81.3 | 105 | 98.7 | 115 | 96.7 | 98.1 | 102 | 98.6 | 99.6
3 | CN[C@@H](C)C(=O)N[C@H]1CN(C(=O)CC(C)C)CC[C@H]2CC[C@@H](C(=O)NC(c3ccccc3)c3ccccc3)N2C1=O [AT-406] (10 nM) | 103 | 110 | 102 | 99.5 | 105 | 99.9 | 96.7 | 95.5 | 105 | 97.8 | 126 | 97.5 | 109 | 89.3 | 66.1 | 95.5 | 94.3 | 104 | 99.7
4 | CC(O)(CS(=O)(=O)c1ccc(F)cc1)C(=O)Nc1ccc(C#N)c(C(F)(F)F)c1 (stereo not drawn) [Bicalutamide] (10 nM) | 102 | 130 | 105 | 99 | 109 | 104 | 100 | 105 | 111 | 106 | 105 | 111 | 113 | 100 | 99.5 | 105 | 107 | 98.6 | 106
5 | CN(Cc1cnc2nc(N)nc(N)c2n1)c1ccc(C(=O)N[C@@H](CCC(=O)O)C(=O)O)cc1 [Methotrexate] (50 nM) | 92.8 | 74.7 | 35.5 | 47.6 | 111 | 88.4 | 32.5 | 100 | 108 | 76.7 | 63.7 | 86.1 | 109 | 114 | 100 | 84.5 | 101 | 33 | 51.9
6 | O=[N+]([O-])c1ccc2c(c1)S(=O)(=O)C=C2 [Stattic] (50 nM) | 96.9 | – | 100 | 103 | 102 | 99.9 | 98.9 | 101 | 102 | 96.5 | 107 | 96.4 | 103 | 97.1 | 94.6 | 106 | 98.6 | 102 | 110
7 | CO[C@@]12[C@H](COC(N)=O)C3=C(C(=O)C(C)=C(N)C3=O)N1C[C@@H]1N[C@@H]12 [Mitomycin C] (10 nM) | 92.8 | 94.4 | 96.7 | 98.7 | 96.3 | 98.9 | 96.9 | 97 | 97.2 | 96.5 | 105 | 91 | 86.7 | 89 | 98.3 | 96.3 | 92.7 | 101 | 82.3
8 | CN(Cc1cnc2nc(N)nc(N)c2n1)c1ccc(C(=O)N[C@@H](CCC(=O)O)C(=O)O)cc1 [Methotrexate] (5 nM) | 108 | 118 | 102 | 109 | 107 | 105 | 99.5 | 109 | 108 | 101 | 103 | 97.6 | 105 | 116 | 117 | 107 | 100 | 107 | 88.1
9 | CC[C@H](CO)Nc1nc(NCc2ccccc2)c2ncn(C(C)C)c2n1 [Seliciclib] (1 nM) | 98 | 107 | 102 | 100 | 97.1 | 106 | 96.7 | 107 | 104 | 100 | 88.7 | 104 | 106 | 104 | 97.2 | 101 | 100 | 97.3 | 92.9
10 | Nc1ccn([C@@H]2O[C@H](CO)[C@@H](O)C2(F)F)c(=O)n1 [Gemcitabine] (1 nM) | 95.7 | – | 99.3 | 98.1 | 109 | 94 | 95.9 | 97.4 | 101 | 101 | 66 | 95.5 | 95.6 | 101 | 95 | 100 | 100 | 95.7 | 109
